Data reported in PMC9797722 (Frontiers in Veterinary Science, 2022).
Like-named read-outs stand apart in the source and are kept apart here.

How the values were obtained:
[1] = humans, cited from earlier work
[2] = in vivo
gastric pH = settings: horses, cited from earlier work
[3] = Canine, cited from earlier work
[4] = Plasma pharmacokinetics of esomeprazole and esomeprazole sulfone in goats after IV and SC administration (HPLC, non-compartmental analysis); settings: for C0: C0, goats; for MRT inf: MRTinf; for k el: λz; for Vd/F: Vz/F
[5] = parameters: method as in PMID 34631865; settings: goats, intravenously or subcutaneously administered, all animals; cited from earlier work
[6] = test system: pH of the third compartment; parameters: method as in PMID 20384953; settings: alpacas, administered IV or SC; cited from earlier work
[7] = both, pygmy and pygmy-cross, plasma, iv, 1 mg/kg
[8] = both, pygmy and pygmy-cross, plasma, iv, 1 mg/kg, goats, 1 mg/kg IV single dose, geomean, n = 5
[9] = both, pygmy and pygmy-cross, plasma, iv, 1 mg/kg, goats, 1 mg/kg IV single dose, median, n = 5
[10] = both, pygmy and pygmy-cross, plasma, sc, 2 mg/kg
[11] = both, pygmy and pygmy-cross, plasma, sc, 2 mg/kg, goats, 2 mg/kg SC (SQ) single dose, geomean, n = 5
[12] = both, pygmy and pygmy-cross, plasma, sc, 2 mg/kg, goats, 2 mg/kg SC (SQ) single dose, median, n = 5
[13] = goats, 1 mg/kg IV single dose, plasma, geomean, n = 5
[14] = goats, 1 mg/kg IV single dose, plasma, median, n = 5
[15] = goats, 2 mg/kg SC (SQ) single dose, plasma, geomean, n = 5
[16] = goats, 2 mg/kg SC (SQ) single dose, plasma, median, n = 5

For COc1ccc2[nH]c(S(=O)(=O)Cc3ncc(C)c(OC)c3C)nc2c1 [Esomeprazole Sulfone, esomeprazole sulfone], the “activity of the metabolite within the body” value [1] is listed as “not active”, the “time detectable in plasma” value [2] is listed as < 4 h and the “detection of sulfone metabolite in plasma” value ([2]; sc) is listed as “no detectable sulfone metabolite”.
For COc1ccc2nc([S@@+]([O-])Cc3ncc(C)c(OC)c3C)[nH]c2c1 [Esomeprazole, esomeprazole], the “tolerability of maintenance therapy” value ([1]; daily for up to 6 months) is given as “generally well-tolerated”, the “gastric pH raised to” value (gastric pH; administered intravenously) is given as ≥ 4 and the AUCinf ([3]; 1 mg/kg IV) is given as 3820 ng·h/mL. For the same compound, the AUClast ([3]; 1 mg/kg IV) was 3820 ng·h/mL, the Cl ([3]; 1 mg/kg IV) was 5 mL/min/kg and the “T1/2 (λz)” value ([3]; 1 mg/kg IV) was 43.8 min. For the same compound, the Vss ([3]; 1 mg/kg IV) was 0.27 L/kg, the AUCinf ([3]; 1 mg/kg SQ) was 4070 ng·h/mL and the AUClast ([3]; 1 mg/kg SQ) was 4070 ng·h/mL. For the same compound, the C0/Cmax ([3]; 1 mg/kg SQ) was 2620 ng/mL, the “F (bioavailability)” value ([3]; 1 mg/kg SQ) was 106% and the “T1/2 (λz)” value ([3]; 1 mg/kg SQ) was 54 min. For the same compound, the “F (bioavailability)” value ([4]; Goat, 2 mg/kg SC vs 1 mg/kg IV, AUCSC/AUCIV x DoseIV/DoseSC) was 116%, the AUC(0-inf) [4, 7] was 440 ng·h/mL and the AUC(0-t) [4, 7] was 440 ng·h/mL. It also gave a C0 ([4]; both, pygmy and pygmy-cross, plasma, iv, 1 mg/kg, 1 mg/kg IV single dose, geomean, n = 5) of 2320 ng/mL, a C0 ([4]; both, pygmy and pygmy-cross, plasma, iv, 1 mg/kg, 1 mg/kg IV single dose, median, n = 5) of 2880 ng/mL and a Cmax ([4]; both, pygmy and pygmy-cross, plasma, iv, 1 mg/kg, C0/Cmax, Goat, 1 mg/kg IV (Table 3 comparison)) of 2320 ng/mL. For the same compound, the clearance ([4]; both, pygmy and pygmy-cross, plasma, iv, 1 mg/kg, Cl (plasma clearance), goats, 1 mg/kg IV single dose, geomean, n = 5) was 24.9 mL/min/kg, the clearance ([4]; both, pygmy and pygmy-cross, plasma, iv, 1 mg/kg, Cl (plasma clearance), goats, 1 mg/kg IV single dose, median, n = 5) was 21.9 mL/min/kg and the clearance ([4]; both, pygmy and pygmy-cross, plasma, iv, 1 mg/kg, Cl, Goat, 1 mg/kg IV (Table 3 comparison)) was 25 mL/min/kg. For the same compound, the MRT inf [4, 8] was 9.19 min, the MRT inf [4, 9] was 8.41 min and the Vd ([4]; both, pygmy and pygmy-cross, plasma, iv, 1 mg/kg, Vss, Goat, 1 mg/kg IV (Table 3 comparison)) was 0.23 L/kg. The Vd ([4]; both, pygmy and pygmy-cross, plasma, iv, 1 mg/kg, Vz (volume of distribution), goats, 1 mg/kg IV single dose, geomean, n = 5) was 0.23 L/kg, the Vd ([4]; both, pygmy and pygmy-cross, plasma, iv, 1 mg/kg, Vz (volume of distribution), goats, 1 mg/kg IV single dose, median, n = 5) was 0.19 L/kg and the clearance ([4]; both, pygmy and pygmy-cross, plasma, iv, 1 mg/kg, clearance, goats, 1 mg/kg IV, not normalised to body weight) was 1050 mL/min. It also gave a k el [4, 8] of 0.00183 s⁻¹, a k el [4, 9] of 0.00183 s⁻¹ and an AUC(0-inf) [4, 10] of 1030 ng·h/mL. For the same compound, the AUC(0-t) [4, 10] was 1020 ng·h/mL, the Cmax ([4]; both, pygmy and pygmy-cross, plasma, sc, 2 mg/kg, C0/Cmax, Goat, 2 mg/kg SQ (Table 3 comparison)) was 1040 ng/mL and the Cmax ([4]; both, pygmy and pygmy-cross, plasma, sc, 2 mg/kg, Cmax, goats, 2 mg/kg SC (SQ) single dose, geomean, n = 5) was 1040 ng/mL. The Cmax ([4]; both, pygmy and pygmy-cross, plasma, sc, 2 mg/kg, Cmax, goats, 2 mg/kg SC (SQ) single dose, median, n = 5) was 1060 ng/mL, the bioavailability ([4]; both, pygmy and pygmy-cross, plasma, sc, 2 mg/kg, F (bioavailability), Goat, 2 mg/kg SC vs 1 mg/kg IV, AUCSC/AUCIV x DoseIV/DoseSC) was > 100% and the MRT inf [4, 11] was 51.7 min. The MRT inf [4, 12] was 52.1 min, the half-life ([4]; both, pygmy and pygmy-cross, plasma, sc, 2 mg/kg, T1/2 (λz) elimination half-life, goats, 2 mg/kg SC (SQ) single dose, geomean, n = 5) was 29 min and the half-life ([4]; both, pygmy and pygmy-cross, plasma, sc, 2 mg/kg, T1/2 (λz) elimination half-life, goats, 2 mg/kg SC (SQ) single dose, median, n = 5) was 26.8 min. For the same compound, the half-life ([4]; both, pygmy and pygmy-cross, plasma, sc, 2 mg/kg, T1/2 (λz), Goat, 2 mg/kg SQ) was 29.4 min, the Tmax ([4]; both, pygmy and pygmy-cross, plasma, sc, 2 mg/kg, Tmax, goats, 2 mg/kg SC (SQ) single dose, geomean, n = 5) was 22 min and the Tmax ([4]; both, pygmy and pygmy-cross, plasma, sc, 2 mg/kg, Tmax, goats, 2 mg/kg SC (SQ) single dose, median, n = 5) was 20 min. For the same compound, the Vd/F [4, 11] was 0.9 L/kg, the Vd/F [4, 12] was 0.78 L/kg and the k el [4, 11] was 0.0004 s⁻¹. The k el [4, 12] was 0.000433 s⁻¹, the AUCinf [4, 13] was 442 ng·h/mL and the AUClast [4, 13] was 439 ng·h/mL. It also gave an AUMCinf [4, 13] of 244 min²·µg/mL, an AUCinf [4, 14] of 397 ng·h/mL and an AUClast [4, 14] of 394 ng·h/mL. It also gave an AUMCinf [4, 14] of 222 min²·µg/mL, an AUCinf [4, 15] of 1030 ng·h/mL and an AUClast [4, 15] of 1020 ng·h/mL. For the same compound, the AUMCinf [4, 15] was 3200 min²·µg/mL, the Tmax ([4]; goats, 2 mg/kg SC (SQ) single dose, plasma, geomean, n = 5, 2 mg/kg) was 21.69 min and the AUCinf [4, 16] was 979 ng·h/mL. For the same compound, the AUClast [4, 16] was 959 ng·h/mL, the AUMCinf [4, 16] was 3780 min²·µg/mL and the “plasma concentrations detected over time” value ([4]; goats, IV (1 mg/kg) and SC (2 mg/kg), any animal) was “not detected after 4 h”.
For COc1ccc2[n-]c([S+]([O-])Cc3ncc(C)c(OC)c3C)nc2c1.COc1ccc2[n-]c([S+]([O-])Cc3ncc(C)c(OC)c3C)nc2c1.[Mg+2] (stereo not shown) [esomeprazole magnesium], the “gastric pH maintained” value (gastric pH; orally 60 or 80 mg, for up to 6 h post administration) is given as ≥ 5 and the adverse reactions (gastric pH; orally 60 or 80 mg) is given as “No adverse reactions were found”.
In the case of COc1ccnc(C[S+]([O-])c2nc3ccc(OC(F)F)cc3[nH]2)c1OC (stereo not shown) [pantoprazole], the “plasma concentration detected over time” value [5] is given as “undetectable after 4 h” and the “effect on pH of the third compartment” value [6] is given as “significantly increased the pH of the third compartment”.
